Measurements: patent US10167262B2, “Herbicidal substituted 3-arylpyrazoles” (FMC CORPORATION, priority 2014, dated 2019)

Tested on: barnyardgrass (Echinochloa crus-galli)
Assay: Test A pre-/postemergence greenhouse herbicide test, visual injury rating 0-100
Format: in vivo
Conditions: Postemergence, 125 g ai/ha
How it was run: (§1)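 Scale 0–100 (none to complete control), visual, versus untreated controls after approx. 10 greenhouse days. Pre: directed soil spray at planting. Post: 2–10 cm, one- to two-leaf plants. Non-phytotoxic solvent plus surfactant vehicle.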

Question: `O=C(c1cncc(F)c1)c1c[nH]nc1-c1cc(F)cc(Cl)c1` [Compound 22] was tested. Which “Plant response rating (0 to 100 scale), Barnyardgrass” value did it give?
Answer: 0

Same assay, conditions: Postemergence, 500 g ai/ha

Question: With `O=C(c1cncc(F)c1)c1c[nH]nc1-c1cc(F)cc(Cl)c1` [Compound 22] as the molecule, how does the “Plant response rating (0 to 100 scale), Barnyardgrass” value read?
Answer: 0

Same assay, conditions: Preemergence, 125 g ai/ha

Question: `O=C(c1cncc(F)c1)c1c[nH]nc1-c1cc(F)cc(Cl)c1` [Compound 22] was tested. Which “Barnyardgrass plant response rating (0 = no effect, 100 = complete control)” value did it give?
Answer: 0

Same assay, conditions: Preemergence, 500 g ai/ha

Question: `O=C(c1cncc(F)c1)c1c[nH]nc1-c1cc(F)cc(Cl)c1` [Compound 22] was tested. Which “Plant response rating (0 to 100 scale), Barnyardgrass” value did it give?
Answer: 0

Tested on: corn (Zea mays)
Assay: as above
Format: in vivo
Conditions: Postemergence, 125 g ai/ha
How it was run: as §1

Question: `O=C(c1cncc(F)c1)c1c[nH]nc1-c1cc(F)cc(Cl)c1` [Compound 22] was tested. Which “Plant response rating (0 to 100 scale), Corn” value did it give?
Answer: 0

Same assay, conditions: Postemergence, 500 g ai/ha

Question: For `O=C(c1cncc(F)c1)c1c[nH]nc1-c1cc(F)cc(Cl)c1` [Compound 22], which “Plant response rating (0 to 100 scale), Corn” value is on record?
Answer: 0

Same assay, conditions: Preemergence, 125 g ai/ha

Question: How did the “Corn plant response rating (0 = no effect, 100 = complete control)” value turn out when `O=C(c1cncc(F)c1)c1c[nH]nc1-c1cc(F)cc(Cl)c1` [Compound 22] was run?
Answer: 0

Same assay, conditions: Preemergence, 500 g ai/ha

Question: `O=C(c1cncc(F)c1)c1c[nH]nc1-c1cc(F)cc(Cl)c1` [Compound 22] was tested. Which “Plant response rating (0 to 100 scale), Corn” value did it give?
Answer: 0

Tested on: giant foxtail (Setaria faberii)
Assay: as above
Format: in vivo
Conditions: Postemergence, 125 g ai/ha
How it was run: as §1

Question: `O=C(c1cncc(F)c1)c1c[nH]nc1-c1cc(F)cc(Cl)c1` [Compound 22] was tested. Which “Plant response rating (0 to 100 scale), Foxtail, Giant” value did it give?
Answer: 0

Same assay, conditions: Postemergence, 500 g ai/ha

Question: With `O=C(c1cncc(F)c1)c1c[nH]nc1-c1cc(F)cc(Cl)c1` [Compound 22] as the molecule, how does the “Plant response rating (0 to 100 scale), Foxtail, Giant” value read?
Answer: 0

Same assay, conditions: Preemergence, 125 g ai/ha

Question: For `O=C(c1cncc(F)c1)c1c[nH]nc1-c1cc(F)cc(Cl)c1` [Compound 22], which “Foxtail, Giant plant response rating (0 = no effect, 100 = complete control)” value is on record?
Answer: 0

Same assay, conditions: Preemergence, 500 g ai/ha

Question: `O=C(c1cncc(F)c1)c1c[nH]nc1-c1cc(F)cc(Cl)c1` [Compound 22] was tested. Which “Plant response rating (0 to 100 scale), Foxtail, Giant” value did it give?
Answer: 0

Tested on: large (Lg) crabgrass (Digitaria sanguinalis)
Assay: as above
Format: in vivo
Conditions: Postemergence, 125 g ai/ha
How it was run: as §1

Question: How did the “Plant response rating (0 to 100 scale), Crabgrass, Large” value turn out when `O=C(c1cncc(F)c1)c1c[nH]nc1-c1cc(F)cc(Cl)c1` [Compound 22] was run?
Answer: 0

Same assay, conditions: Postemergence, 500 g ai/ha

Question: How did the “Plant response rating (0 to 100 scale), Crabgrass, Large” value turn out when `O=C(c1cncc(F)c1)c1c[nH]nc1-c1cc(F)cc(Cl)c1` [Compound 22] was run?
Answer: 0

Same assay, conditions: Preemergence, 125 g ai/ha

Question: Which “Crabgrass, Large plant response rating (0 = no effect, 100 = complete control)” value does the source give for `O=C(c1cncc(F)c1)c1c[nH]nc1-c1cc(F)cc(Cl)c1` [Compound 22] here?
Answer: 0

Same assay, conditions: Preemergence, 500 g ai/ha

Question: Which “Plant response rating (0 to 100 scale), Crabgrass, Large” value does the source give for `O=C(c1cncc(F)c1)c1c[nH]nc1-c1cc(F)cc(Cl)c1` [Compound 22] here?
Answer: 0

Tested on: morningglory (Ipomoea spp.)
Assay: as above
Format: in vivo
Conditions: Postemergence, 125 g ai/ha
How it was run: as §1

Question: How did the “Plant response rating (0 to 100 scale), Morningglory” value turn out when `O=C(c1cncc(F)c1)c1c[nH]nc1-c1cc(F)cc(Cl)c1` [Compound 22] was run?
Answer: 0

Same assay, conditions: Postemergence, 500 g ai/ha

Question: For `O=C(c1cncc(F)c1)c1c[nH]nc1-c1cc(F)cc(Cl)c1` [Compound 22], which “Plant response rating (0 to 100 scale), Morningglory” value is on record?
Answer: 0

Same assay, conditions: Preemergence, 125 g ai/ha

Question: With `O=C(c1cncc(F)c1)c1c[nH]nc1-c1cc(F)cc(Cl)c1` [Compound 22] as the molecule, how does the “Morningglory plant response rating (0 = no effect, 100 = complete control)” value read?
Answer: 0

Same assay, conditions: Preemergence, 500 g ai/ha

Question: `O=C(c1cncc(F)c1)c1c[nH]nc1-c1cc(F)cc(Cl)c1` [Compound 22] was tested. Which “Plant response rating (0 to 100 scale), Morningglory” value did it give?
Answer: 0

Tested on: pigweed (Amaranthus retroflexus)
Assay: as above
Format: in vivo
Conditions: Postemergence, 125 g ai/ha
How it was run: as §1

Question: With `O=C(c1cncc(F)c1)c1c[nH]nc1-c1cc(F)cc(Cl)c1` [Compound 22] as the molecule, how does the “Plant response rating (0 to 100 scale), Pigweed” value read?
Answer: 70

Same assay, conditions: Postemergence, 500 g ai/ha

Question: With `O=C(c1cncc(F)c1)c1c[nH]nc1-c1cc(F)cc(Cl)c1` [Compound 22] as the molecule, how does the “Plant response rating (0 to 100 scale), Pigweed” value read?
Answer: 100

Same assay, conditions: Preemergence, 125 g ai/ha

Question: For `O=C(c1cncc(F)c1)c1c[nH]nc1-c1cc(F)cc(Cl)c1` [Compound 22], which “Pigweed plant response rating (0 = no effect, 100 = complete control)” value is on record?
Answer: 60

Same assay, conditions: Preemergence, 500 g ai/ha

Question: For `O=C(c1cncc(F)c1)c1c[nH]nc1-c1cc(F)cc(Cl)c1` [Compound 22], which “Plant response rating (0 to 100 scale), Pigweed” value is on record?
Answer: 100

Tested on: velvetleaf (Abutilon theophrasti)
Assay: as above
Format: in vivo
Conditions: Postemergence, 125 g ai/ha
How it was run: as §1

Question: How did the “Plant response rating (0 to 100 scale), Velvetleaf” value turn out when `O=C(c1cncc(F)c1)c1c[nH]nc1-c1cc(F)cc(Cl)c1` [Compound 22] was run?
Answer: 60

Same assay, conditions: Postemergence, 500 g ai/ha

Question: With `O=C(c1cncc(F)c1)c1c[nH]nc1-c1cc(F)cc(Cl)c1` [Compound 22] as the molecule, how does the “Plant response rating (0 to 100 scale), Velvetleaf” value read?
Answer: 80

Same assay, conditions: Preemergence, 125 g ai/ha

Question: For `O=C(c1cncc(F)c1)c1c[nH]nc1-c1cc(F)cc(Cl)c1` [Compound 22], which “Velvetleaf plant response rating (0 = no effect, 100 = complete control)” value is on record?
Answer: 30

Same assay, conditions: Preemergence, 500 g ai/ha

Question: `O=C(c1cncc(F)c1)c1c[nH]nc1-c1cc(F)cc(Cl)c1` [Compound 22] was tested. Which “Plant response rating (0 to 100 scale), Velvetleaf” value did it give?
Answer: 60

Tested on: wheat (Triticum aestivum)
Assay: as above
Format: in vivo
Conditions: Postemergence, 125 g ai/ha
How it was run: as §1

Question: How did the “Plant response rating (0 to 100 scale), Wheat” value turn out when `O=C(c1cncc(F)c1)c1c[nH]nc1-c1cc(F)cc(Cl)c1` [Compound 22] was run?
Answer: 0

Same assay, conditions: Postemergence, 500 g ai/ha

Question: `O=C(c1cncc(F)c1)c1c[nH]nc1-c1cc(F)cc(Cl)c1` [Compound 22] was tested. Which “Plant response rating (0 to 100 scale), Wheat” value did it give?
Answer: 0

Same assay, conditions: Preemergence, 125 g ai/ha

Question: `O=C(c1cncc(F)c1)c1c[nH]nc1-c1cc(F)cc(Cl)c1` [Compound 22] was tested. Which “Wheat plant response rating (0 = no effect, 100 = complete control)” value did it give?
Answer: 0

Same assay, conditions: Preemergence, 500 g ai/ha

Question: `O=C(c1cncc(F)c1)c1c[nH]nc1-c1cc(F)cc(Cl)c1` [Compound 22] was tested. Which “Plant response rating (0 to 100 scale), Wheat” value did it give?
Answer: 0

Tested on: barnyardgrass (Echinochloa crus-galli)
Assay: Test B flooded paddy test, plant response rating 0-100
Format: in vivo
Conditions: Flood, 250 g ai/ha; scale 0 to 100 (0 no effect, 100 complete control); 13 to 15 days
How it was run: (§2)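 Under a constant 3 cm flood, test compounds went directly into the paddy water. Following 13 to 15 days of greenhouse growth, treated species and controls were compared by eye.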

Question: `O=C(c1cncc(F)c1)c1c[nH]nc1-c1cc(F)cc(Cl)c1` [Compound 22] was tested. Which “Plant response rating, Barnyardgrass” value did it give?
Answer: 0

Tested on: ducksalad (Heteranthera limosa)
Assay: as above
Format: in vivo
Conditions: Flood, 250 g ai/ha; scale 0 to 100 (0 no effect, 100 complete control); 13 to 15 days
How it was run: as §2

Question: `O=C(c1cncc(F)c1)c1c[nH]nc1-c1cc(F)cc(Cl)c1` [Compound 22] was tested. Which “Plant response rating, Ducksalad” value did it give?
Answer: 0

Tested on: rice (Oryza sativa)
Assay: as above
Format: in vivo
Conditions: Flood, 250 g ai/ha; scale 0 to 100 (0 no effect, 100 complete control); 13 to 15 days
How it was run: as §2

Question: With `O=C(c1cncc(F)c1)c1c[nH]nc1-c1cc(F)cc(Cl)c1` [Compound 22] as the molecule, how does the “Plant response rating, Rice” value read?
Answer: 0

Tested on: sedge, umbrella (small-flower umbrella sedge, Cyperus difformis)
Assay: as above
Format: in vivo
Conditions: Flood, 250 g ai/ha; scale 0 to 100 (0 no effect, 100 complete control); 13 to 15 days
How it was run: as §2

Question: For `O=C(c1cncc(F)c1)c1c[nH]nc1-c1cc(F)cc(Cl)c1` [Compound 22], which “Plant response rating, Sedge, Umbrella” value is on record?
Answer: 0
